# Test results reported in PubChem BioAssay (NCI).
# Where “and” joins values, the source holds several entries; their conditions need not be identical. Equal values may be shown once.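 How tested: cells in 96-well plates exposed to compound for 48 hours at five concentrations. GI50 marks 50% less growth. TGI is the concentration that stops growth completely.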
# Key:
# Experiment in all cases: NCI-60 cell line screen, 48 h
# [1] = system: 786-0 renal
# [2] = system: A549 NSCLC
# [3] = system: ACHN renal
# [4] = system: COLO 205 colon
# [5] = system: KM12 colon
# [6] = system: MOLT-4 leukemia
# [7] = system: NCI-H460 lung
# [8] = system: NCI/ADR-RES ovarian
# [9] = system: OVCAR-5 ovarian
# [10] = system: SK-MEL-2 melanoma
SMILES,GI50 [1] [µM],TGI [1] [µM],GI50 [2] [µM],TGI [2] [µM],GI50 [3] [µM],TGI [3] [µM],GI50 [4] [µM],TGI [4] [µM],GI50 [5] [µM],TGI [5],GI50 [6] [µM],TGI [6] [µM],GI50 [7] [µM],TGI [7] [µM],GI50 [8],TGI [8] [µM],GI50 [9],TGI [9] [µM],GI50 [10],TGI [10]
COc1cnc2c(c1)C(=O)c1c-2n(CCCNC2=NCCS2)c(=O)c2cc(F)ccc12,0.271,1.31,0.155,1.75,0.0496,1.91,0.201,1.91,0.577,3.68 µM,0.0421,0.514,0.0356,1.11,0.34 µM,11.9,0.795 µM,13.3,15.8 µM,32.7 µM
CN=C(N)c1ccc(N=C(N)c2ccc(-c3ccc(C(N)=Nc4ccc(C(N)=NC)cc4)cc3)cc2)cc1,> 100,> 100,> 100,> 100,> 100,> 100,99.5,> 100,61.9,> 100 µM,> 100,> 100,55.8,> 100,> 100 µM,> 100,> 100 µM,> 100,35.1 µM,> 100 µM
Cc1cc(=O)oc2ccc(OC/C=C3\CCC(=O)O3)cc12,2.7,14.2,17,33,0.936,2.14,2.17,7.24,7.76,25.5 µM,3.05,> 100,17.3,43,13.7 µM,32.4,14.8 µM,31.2,10.7 µM,30.6 µM
NS(=O)(=O)c1ccc(Nc2cc(-c3ccc(O)c(F)c3)[nH]n2)cc1,> 25,> 25,> 25,> 25,> 25,> 25,> 25,> 25,10.3,> 25 µM,> 25,> 25,> 25,> 25,> 25 µM,> 25,> 25 µM,> 25,11.4 µM,> 25 µM
COc1cccc2c1-c1nc(N)c3c(OC)cccc3c1C2=O,–,> 100,–,> 100,–,–,–,> 100,–,35.3 µM,–,> 100,–,–,–,> 100,–,> 100,–,> 100 µM
C=C1C[C@H]2C=Nc3cc(OCCCOc4cc5c(cc4OC)C(=O)N4CC(=C)C[C@H]4C=N5)c(OC)cc3C(=O)N2C1,0.00125,–,0.0135,> 100,–,0.0922,0.00546,0.0343,0.0201,0.0722 µM and 0.0169 µM,–,0.00105,0.000277,0.544,0.317 µM and 0.0972 µM,2.84,0.0197 µM and < 0.0205 µM,–,0.0168 µM and < 0.0128 µM,0.0347 µM and < 0.0282 µM
O=C1NC(=S)S/C1=C\c1cn(-c2ccccc2)nc1-c1ccccc1,3.92,28.5,5.88,> 100,7.4,21.4,21.2,75.8,6.24,21.7 µM,14.8,> 100,5.5,19.2,4.8 µM,> 100,14.3 µM,29.6,4.18 µM,19.4 µM
C[C@@]1([C@H](OC(=O)c2ccccc2)C(N)=O)CO1,22.6,59.4,24,61.4,10.5,34.3,22.5,43,33.4,> 100 µM,35.7,> 100,20.6,53,16.4 µM,44.3,34.1 µM,85.9,22.1 µM,> 100 µM
O=C(O)C1=C/C(=C(/c2ccccc2)c2cc(C(=O)O)c(O)c3ccccc23)c2ccccc2C1=O,–,> 100,–,> 100,–,> 100,–,> 100,–,> 100 µM,–,> 100,–,> 100,–,> 100,–,> 100,–,> 100 µM
CSC1=NC(=Nc2c(C)cccc2C)C2(CCC(C(C)(C)C)CC2)N1c1ccc(Cl)cc1 (stereo not drawn),68.7,> 100,–,–,8.4,> 100,46.4,> 100,20.9,> 100 µM,6.82,> 100,4.68,> 100,77.7 µM,> 100,> 100 µM,> 100,> 100 µM,> 100 µM
Cc1ccccc1N=Nc1c(O)ccc2ccccc12,–,> 100,–,> 100,–,> 100,–,> 100,–,> 100 µM,–,> 100,–,–,–,> 100,–,> 100,–,> 100 µM
O=C(CS(=O)(=O)c1nc2ccccc2nc1-c1ccccc1)Nc1ccc(F)cc1,> 100,> 100,> 100,> 100,> 100,> 100,65.1,> 100,31,97.7 µM,–,–,88.8,> 100,33.7 µM,> 100,> 100 µM,> 100,51.9 µM,> 100 µM
COc1ccc(-c2cc(=O)c3c(O)c(OC)c(OC)c(OC)c3o2)cc1OC,–,> 100,–,> 100,–,> 100,–,> 100,–,> 100 µM,–,> 100,–,–,–,> 100,–,> 100,–,> 100 µM
